Results: US11773078B2, “Furin inhibitors” (Glaxosmithkline Intellectual Property Development Limited, priority 2018, dated 2023)
Counter-ions that a name gives are not always drawn.

Legend:
[1] = target: T1, Furin (108-574-Tev-Flag-His) enzyme (Homo sapiens, UniProt P09958); assay: Furin enzyme assay; type: biochemical
T1 construct: Furin (108-574-Tev-Flag-His) enzyme was expressed and purified from CHO cells; TEV cleavage site (C); FLAG (C); His (C); made in house; host or cells: CHO cells
In short: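 Compounds ran as 11-point threefold dilutions (0.00017–10 μM final) against 40 pM furin, purified from CHO cells, for 2 h at room temperature. Buffer: 100 mM HEPES pH7.5 with 1 mM CaCl2 and 0.005% Triton X-100. Envision readout. Four-parameter curve gives pXC50.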

[2] = target: T2, furin (endogenous protease) in U20S cells (Homo sapiens, UniProt P09958); assay: Furin cell-based assay (image-based, Golgi-targeted GFP with BMP10 furin/PCSK cleavage site); settings: 24-hour incubation, read-out: furin golgi cell pXC50 (converted);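 note: Read-out is mean GFP fluorescence of Golgi puncta per cell by high-content imaging, retained when furin inhibited, over an eleven-point 0.00017–10 µM series, four-parameter fit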
T2 construct: the endogenous protease cleaves GFP; endogenous in cells; host or cells: U2OS cells transduced with a BacMam reporter
Experimental: This assay uses an image-based platform to evaluate the intracellular activity of compounds of the invention. Reactions were performed in black 384-well, tissue culture-treated, clear bottom plates (Greiner). Compounds under analysis were dissolved in DMSO (1.0 mM) and serially diluted 1 to 3 with DMSO through eleven dilutions. This creates a final compound concentration range from 0.00017 to 10 μM, and 0.1 μL of each concentration was transferred to the corresponding well of the assay plate. Assays were initiated by the addition of U20S cells simultaneously transduced with a BacMam-delivered construct containing a Golgi-targeting sequence followed by a 12-amino acid furin/PCSK cleavage site from Bone Morphogenic Protein 10 (BMP10) and then GFP at the C terminus. […] Briefly, frozen cells are thawed in assay media (Dulbecco's Modified Eagles Medium Nutritional Mixture F-12 (Ham) without phenol red containing 5% FBS) and diluted to deliver 6000 cells/well (50 μL) to the plate using a Multidrop Combi (Thermo).
After a 24-hour incubation period at 37° C., the cells are stained with Cell Mask Deep Red, fixed in paraformaldehyde and the nuclei stained using Ho33342. The Golgi-targeted GFP forms bright punctate clusters within the cell. In the absence of a furin inhibitor, the endogenous protease cleaves GFP from its N-acetylgalactosaminyltransferase-2 Golgi tether, releasing GFP into the Golgi lumen where fluorescence is diluted below the threshold of assay sensitivity. […] Cellular GFP intensity is determined by image-based acquisition (Incell 2200, Perkin Elmer) at 40× magnification with 4 fields measured per well. Multi-scale tophat segmentation is used to identify the GFP-tagged puncta and to quantitate the average fluorescence of all puncta on a per cell basis. Cellular toxicity is determined in parallel.
Data were analyzed using AbaseXE 7.3, utilizing a four-parameter curve fit equation. The following values were used to define limits and/or constraints for each of the four parameters: • Minimum—limit −10 to 10 • Maximum—90 to 110 • Slope—limit 0.5 to 2.0 • pXC50 confidence interval—10
Raw counts obtained from the respective plate reader (Perkin Elmer) were captured for data analysis. Curves were generated using the equation: Y=A+[(B−A)/(1+(10^C/x)^D)] • where: A=minimum response • B=maximum response • C=log 10*XC50 • D=slope factor • x=log 10 compound concentration [M]
The results were recorded as pXC50 values (−C in the above equation)

[3] = system: hydroxyproline (a specific marker for collagen) in mouse lung; assay: Bleomycin induced lung fibrosis model: hydroxyproline assay; type: in vivo; settings: 10 mg/kg, Intra-peritoneal, Twice daily; relative to levels induced by Bleomycin in vehicle treated animals; *p < 0.05
Experimental: (§1) Preclinical pulmonary fibrosis can be induced by single instillation of Bleomycin to the mouse lung. A 15-day Bleomycin protocol was developed to evaluate compounds of the invention in vivo for their ability to inhibit TGFβ secretion and collagen deposition in the mouse lung. On the day before Bleomycin instillation, compounds were administrated to mice based on the appropriate route and frequency. On the study initiation day, under Ketamine (80 mg/kg) and Xylazine (10 mg/kg) anesthesia, all the animals were cannulated oro-tracheally and 50 μL of normal saline (Sham control) or 0.03 U Bleomycin in 50 μL saline (all groups except sham control group) was delivered into the trachea. Compounds were dosed daily until the end of study on Day 15. On termination day, animals were euthanized using CO2 inhalation. The right lung was collected, washed in normal saline, weighed, flash frozen in liquid nitrogen and stored at −80° C. for hydroxyproline (a specific marker for collagen) and TGFβ assays.
(§2) Flash frozen whole right lung tissues were homogenized in 500 μL of RIPA buffer containing PMSF and protease inhibitor cocktail using zirconium oxide bead based homogenizer (Bullet blender Gold, NextAdvance, Germany). Briefly, tissues were spun in the homogenizer at 4° C. for three cycles of 10 minutes each at 1000 g. A complete uniform tissue mixture was obtained using this procedure. The homogenate volume was made up to 1.5 mL by adding 1 mL of RIPA buffer containing PMSF and protease inhibitor cocktail to 500 μL of homogenate. The homogenate was stored as aliquots of 100-500 μL each at −80° C.
Acid hydrolysis: 500 μL of the homogenized lung parenchyma was transferred to glass vials, and an equal volume of 12N HCl was added (final concentration of HCl: 6N). The vials were purged with nitrogen gas, sealed and incubated overnight (16 h) under anoxic conditions at 110° C.
Post incubation procedures: 35 μL of the sample from each tube or standard (prepared by serial dilution of hydroxyproline stock solution) was added onto a 96 well plate and the assay was performed as per the kit protocol (Quickzyme Biosciences: Cat #: QZBHYPR05). After the final color development, absorbance was measured by colorimetric analysis at 570 nm (using Thermoscan spectrum (Plate Reader) and results were recorded. Standard curve (linear graph) was generated by using hydroxyproline standards provided in the Quickzyme kit.

[4] = system: TGFβ in mouse lung; assay: Bleomycin induced lung fibrosis model: TGFβ assay; type: in vivo; settings: 10 mg/kg, Intra-peritoneal, Twice daily; relative to levels induced by Bleomycin in vehicle treated animals; *p < 0.05
Experimental: as §1, §2
Lung tissue homogenates (500 μL) were spun at 13,000 rpm for 20 minutes at 4° C. and supernatants were collected for TGFβ estimation. The assay was performed according to the manufacturer's manual (R&D systems: Cat #SMB100B). Briefly, the lung homogenates were activated by acid activation followed by neutralization to convert latent TGFβ to active TGFβ and the total TGFβ levels in supernatants were measured. Total protein levels in the lung supernatant were also determined.

[5] = system: epithelial sodium channel (ENaC); assay: Transepithelial Electrical Resistance (TEER) assay, primary CF delF508 or non-CF HBE cells (FIG. 6-9); type: cell-based, human
Experimental: (§3) Primary cultures of CF delF508 or non-CF HBE cells are seeded onto permeable filter supports and grown for 12-14 days for a significant RTE to be measured for TEER assays.
(§4) When the ENaC is active under basal conditions (at least in part due to protease cleavage inside the cell or at the apical membrane), there is a finite RTE that is affected by the Na+ current flowing through ENaC heterotrimers (αβγ or δβγ).

[6] = system: epithelial sodium channel (ENaC); assay: TEER assay, chronic or acute treatment, Non-CF Polarized Human Lobar Bronchial Epithelial Cells; type: cell-based; set-up: RTE Before Amil / RTE After Amil: unit not given here; settings: for Delta RTE / RTE After Amil / RTE Before Amil: chronic treatment (overnight)
Experimental: as §3, §4

[7] = system: epithelial sodium channel (ENaC); assay: Transepithelial fluid transport assay, CF delF508 HBE cells; type: cell-based, human
Experimental: Primary cultures of CF delF508 or non-CF HBE cells are seeded onto permeable filter supports and grown for 7 days for a significant RTE to be measured. Then, apical media is removed to initiate air-fluid interface (AFI) culture. When the cell monolayers are tight to fluid leak from basolateral to apical side of the cell monolayer, they are ready for fluid transport (fluid absorption) measurements.
Two methods are being used to challenge cell monolayers in AFI culture where there is no media in the apical side:
(1) A chronic overnight treatment was performed by adding the protease inhibitors (ENaC inhibitors) into the basolateral media. Then, […] of cell culture media is added to the apical side of each monolayer and fluid absorption measured (by the loss of volume in mls).
(2) An acute treatment was performed when the protease inhibitors (ENaC inhibitors) are added in the apical media in that […] volume (or media only or DMSO equivalents as controls).
In each case, fluid absorption is occurring against a 5× hydrostatic pressure gradient (i.e., there are 500 ml on the basolateral side and […] on the apical side).
When the ENaC is active under basal conditions (at least in part due to protease cleavage inside the cell or at the apical membrane), the absorptive Na+ current flowing through ENaC heterotrimers (αβγ or δβγ) creates an osmotic driving force for fluid absorption.

[8] = target: furin and PCSK 5/6; settings: serpin protease inhibitor; specificity for furin and PCSK 5/6; from Couture et al. 2015; cited from earlier work

T1 sequence (P09958 108-574): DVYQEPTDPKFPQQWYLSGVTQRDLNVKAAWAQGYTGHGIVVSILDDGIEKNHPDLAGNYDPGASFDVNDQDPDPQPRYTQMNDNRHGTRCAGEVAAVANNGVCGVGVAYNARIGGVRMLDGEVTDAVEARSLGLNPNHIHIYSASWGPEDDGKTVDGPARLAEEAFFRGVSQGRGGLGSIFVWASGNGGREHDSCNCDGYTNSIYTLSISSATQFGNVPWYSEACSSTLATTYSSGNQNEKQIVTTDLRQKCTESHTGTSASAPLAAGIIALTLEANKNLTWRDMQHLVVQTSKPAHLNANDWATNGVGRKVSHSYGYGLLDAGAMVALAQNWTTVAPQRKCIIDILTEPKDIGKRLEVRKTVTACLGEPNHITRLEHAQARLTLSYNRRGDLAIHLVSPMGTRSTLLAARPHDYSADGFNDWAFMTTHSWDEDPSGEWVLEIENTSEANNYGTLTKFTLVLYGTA
T2 sequence (P09958 108-794): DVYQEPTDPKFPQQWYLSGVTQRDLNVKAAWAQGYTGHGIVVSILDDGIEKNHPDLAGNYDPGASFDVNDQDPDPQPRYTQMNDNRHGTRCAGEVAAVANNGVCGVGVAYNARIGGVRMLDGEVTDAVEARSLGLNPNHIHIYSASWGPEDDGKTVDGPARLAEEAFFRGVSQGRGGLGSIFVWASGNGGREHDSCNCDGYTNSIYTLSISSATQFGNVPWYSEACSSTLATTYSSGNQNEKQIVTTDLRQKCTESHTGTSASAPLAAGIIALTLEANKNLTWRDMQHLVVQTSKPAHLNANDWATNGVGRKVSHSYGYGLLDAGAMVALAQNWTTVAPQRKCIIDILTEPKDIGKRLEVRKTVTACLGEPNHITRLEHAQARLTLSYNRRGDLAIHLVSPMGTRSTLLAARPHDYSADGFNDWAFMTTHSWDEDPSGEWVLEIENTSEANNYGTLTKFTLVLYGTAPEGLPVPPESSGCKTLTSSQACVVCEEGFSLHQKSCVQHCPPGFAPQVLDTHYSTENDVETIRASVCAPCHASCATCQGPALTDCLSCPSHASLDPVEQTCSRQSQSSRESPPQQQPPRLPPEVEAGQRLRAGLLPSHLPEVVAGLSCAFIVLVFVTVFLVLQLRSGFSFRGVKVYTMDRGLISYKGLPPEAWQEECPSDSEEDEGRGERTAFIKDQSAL

In the case of `CC(=O)NCC1CCN(Cc2cc(Oc3ccc(N4CCN(CCC(=O)O)CC4)nc3)nc(-c3cc(Cl)cc(Cl)c3)c2)CC1` [Example 11, 3-(4-(5-((4-((4-(Acetamidomethyl)piperidin-1-yl)methyl)-6-(3,5-dichlorophenyl)pyridin-2-yl)oxy)pyridin-2-yl)piperazin-1-yl)propanoic acid, 4 hydrochloride], the “furin enzyme pIC50” value [1] is reported as 9.6, the EC50 [2] is reported as 25.1 nM and the “% inhibition of hydroxyproline in lung” value [3] is reported as 67* %. The “% inhibition of total TGFβ in lung” value [4] was 69* %, the “amiloride-induced increase in RTE” value ([5]; compared to 'Media only' and 'DMSO (LTA)' controls, FIG. 6, *p<0.05) was “concentration-dependent reduction in amiloride-induced increase in RTE” and the “effectiveness on RTE compared to industry standards” value ([5]; compared to Camostat at the same concentration and Aprotinin at ˜10 μM, FIG. 7, overlap in CRCs only at 3 μM) was “more effective”. The “acute effect on RTE” value ([6]; acute treatment, up to 3 μM) was “equivalent acute effect to Aprotinin and a stronger effect than Camostat”, the “inhibition of amiloride-sensitive RTE delta (remaining ENaC activity)” value ([6]; acute treatment, up to 3 μM) was “inhibited amiloride-sensitive RTE delta modestly” and the “effect on the amiloride-sensitive RTE delta” value ([6]; chronic overnight treatment, 3 μM, P<0.05) was “equivalent inhibitory effect”. The “Delta RTE” value ([6]; 0.1 μM) was “+181 ± 16”, the “RTE After Amil” value ([6]; 0.1 μM) was 697 ± 57 and the “RTE Before Amil” value ([6]; 0.1 μM) was 517 ± 42. For the same compound, the “Delta RTE” value ([6]; 0.3 μM) was “+122 ± 6”, the “RTE After Amil” value ([6]; 0.3 μM) was 548 ± 13 and the “RTE Before Amil” value ([6]; 0.3 μM) was 426 ± 10. For the same compound, the “Delta RTE” value ([6]; 1 μM) was “+133 ± 14”, the “RTE After Amil” value ([6]; 1 μM) was 605 ± 49 and the “RTE Before Amil” value ([6]; 1 μM) was 472 ± 38. For the same compound, the “Delta RTE” value ([6]; 3 μM) was “+63 ± 7”, the “RTE After Amil” value ([6]; 3 μM) was 390 ± 18 and the “RTE Before Amil” value ([6]; 3 μM) was 326 ± 16. The “attenuation of rate of fluid lost” value ([7]; 1 and 3 μM) was 50%, the “attenuation of total fluid volume lost” value ([7]; 1 and 3 μM) was 50% and the absorptive fluid transport ([7]; compared to 'DMSO Equivalent' controls, FIG. 10 and FIG. 11) was “concentration-dependent attenuation of absorptive fluid transport”.

For “α1-PDX: "an engineered variant of naturally occurring α-1-antitrypsin serum protease inhibitor"; "a serpin superfamily wide protease inhibitor with high specificity for furin and PCSK 5/6"”, the Ki [8] is listed as no less than 0.6 nM.
